# According to US7781591B2, “Substituted 3-cyanopyridines as protein kinase inhibitors” (Wyeth LLC, priority 2006, dated 2010):
# Molecular target: T1, human PKCθ full length enzyme (Homo sapiens, UniProt Q04759)
# T1 construct: human PKCθ full length enzyme (Panvera Cat# P2996); purchased Panvera P2996
# Assay: PKCθ IMAP assay (fluorescence polarization)
# Assay type: biochemical
# Details: not given
# T1 sequence (Q04759 whole entry): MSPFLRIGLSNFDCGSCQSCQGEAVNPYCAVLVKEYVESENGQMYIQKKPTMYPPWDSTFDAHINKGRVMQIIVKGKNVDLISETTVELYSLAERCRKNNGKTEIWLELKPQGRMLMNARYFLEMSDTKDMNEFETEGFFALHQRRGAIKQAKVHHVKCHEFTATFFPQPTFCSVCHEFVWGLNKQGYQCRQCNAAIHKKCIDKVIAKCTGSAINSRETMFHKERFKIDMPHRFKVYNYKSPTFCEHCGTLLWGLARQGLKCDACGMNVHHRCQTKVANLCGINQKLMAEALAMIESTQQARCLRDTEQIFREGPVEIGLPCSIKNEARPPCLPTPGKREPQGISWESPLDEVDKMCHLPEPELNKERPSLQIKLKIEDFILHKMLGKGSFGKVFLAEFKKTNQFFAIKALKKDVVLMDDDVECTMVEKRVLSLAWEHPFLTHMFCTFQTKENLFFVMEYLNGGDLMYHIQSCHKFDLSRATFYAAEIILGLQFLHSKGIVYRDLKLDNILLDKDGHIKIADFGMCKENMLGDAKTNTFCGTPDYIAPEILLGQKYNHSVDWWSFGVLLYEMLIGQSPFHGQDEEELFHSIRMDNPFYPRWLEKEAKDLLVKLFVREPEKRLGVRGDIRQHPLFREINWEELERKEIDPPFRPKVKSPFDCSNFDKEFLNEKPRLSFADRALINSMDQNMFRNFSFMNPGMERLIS
row,SMILES,IC50
1,"Cc1c(Nc2c(C#N)cncc2-c2ccc(OCCNCCN(C)C)cc2)ccc2[nH]ccc12 [Compound 417, 5-[4-(2-{[2-(dimethylamino)ethyl]amino}ethoxy)phenyl]-4-[(4-methyl-1H-indol-5-yl)amino]nicotinonitrile]",6 nM

# Same assay, conditions: human PKCθ full length enzyme, IMAP; average value; read-out: IC50 PKCθ IMAP
row,SMILES,IC50
1,"Cc1c(Nc2c(C#N)cncc2-c2ccc(CN3CCCCC3)o2)ccc2[nH]ccc12 [Compound 402, 4-[(4-methyl-1H-indol-5-yl)amino]-5-[5-(piperidin-1-ylmethyl)-2-furyl]nicotinonitrile]",41 nM
2,"Cc1c(Nc2c(C#N)cncc2-c2ccc(CN3CCC(N4CCCCC4)CC3)o2)ccc2[nH]ccc12 [Compound 403, 5-[5-(1,4′-bipiperidin-1′-ylmethyl)-2-furyl]-4-[(4-methyl-1H-indol-5-yl)amino]nicotinonitrile]",5 nM
3,"Cc1c(Nc2c(C#N)cncc2-c2ccc(CN3CCC(N4CCCC4)CC3)o2)ccc2[nH]ccc12 [Compound 404, 4-[(4-methyl-1H-indol-5-yl)amino]-5-{5-[(4-pyrrolidin-1-ylpiperidin-1-yl)methyl]-2-furyl}nicotinonitrile]",4 nM
4,"Cc1c(Nc2c(C#N)cncc2-c2ccc(CN3CCC(N4CCOCC4)CC3)o2)ccc2[nH]ccc12 [Compound 405, 4-[(4-methyl-1H-indol-5-yl)amino]-5-{5-[(4-morpholin-4-ylpiperidin-1-yl)methyl]-2-furyl}nicotinonitrile]",9 nM
5,"CCN(CC)Cc1ccc(-c2cncc(C#N)c2Nc2ccc3[nH]ccc3c2C)o1 [Compound 406, 5-{5-[(diethylamino)methyl]-2-furyl}-4-[(4-methyl-1H-indol-5-yl)amino]nicotinonitrile]",42 nM
6,"CCCCN(CCCC)Cc1ccc(-c2cncc(C#N)c2Nc2ccc3[nH]ccc3c2C)o1 [Compound 407, 5-{5-[(dibutylamino)methyl]-2-furyl}-4-[(4-methyl-1H-indol-5-yl)amino]nicotinonitrile]",20 nM
7,"Cc1c(Nc2c(C#N)cncc2-c2ccc(CNCc3ccccc3)o2)ccc2[nH]ccc12 [Compound 408, 5-{5-[(benzylamino)methyl]-2-furyl}-4-[(4-methyl-1H-indol-5-yl)amino]nicotinonitrile]",11 nM
8,"COc1ccc(-c2cncc(C#N)c2Nc2cc3cc[nH]c3cc2C)cc1OC [Compound 412, 5-(3,4-dimethoxyphenyl)-4-[(6-methyl-1H-indol-5-yl)amino]nicotinonitrile]",10 nM
9,"Cc1cc2[nH]ccc2cc1Nc1c(C#N)cncc1-c1cc2ccccc2o1 [Compound 413, 5-(1-benzofuran-2-yl)-4-[(6-methyl-1H-indol-5-yl)amino]nicotinonitrile]",55 nM
10,"Cc1c(Nc2c(C#N)cncc2-c2ccc(OCCNCc3ccccc3)cc2)ccc2[nH]ccc12 [Compound 419, 5-{4-[2-(benzylamino)ethoxy]phenyl}-4-[(4-methyl-1H-indol-5-yl)amino]nicotinonitrile]",4 nM
11,"Cc1c(Nc2c(C#N)cncc2-c2ccc(OCCN3CCC(N4CCOCC4)CC3)cc2)ccc2[nH]ccc12 [Compound 424, 4-[(4-methyl-1H-indol-5-yl)amino]-5-{4-[2-(4-morpholin-4-ylpiperidin-1-yl)ethoxy]phenyl}nicotinonitrile]",4 nM
12,"Cc1c(Nc2c(C#N)cncc2-c2ccc(OCCN3CCN(CCN(C)C)CC3)cc2)ccc2[nH]ccc12 [Compound 428, 5-[4-(2-{4-[2-(dimethylamino)ethyl]piperazin-1-yl}ethoxy)phenyl]-4-[(4-methyl-1H-indol-5-yl)amino]nicotinonitrile]",15 nM
13,"Cc1c(Nc2c(C#N)cncc2-c2ccc(OCCNCCCn3ccnc3)cc2)ccc2[nH]ccc12 [Compound 429, 5-[4-(2-{[3-(1H-imidazol-1-yl)propyl]amino}ethoxy)phenyl]-4-[(4-methyl-1H-indol-5-yl)amino]nicotinonitrile]",5 nM
14,"Cc1c(Nc2c(C#N)cncc2-c2ccc(OCCN3CCN(c4ccccn4)CC3)cc2)ccc2[nH]ccc12 [Compound 430, 4-[(4-methyl-1H-indol-5-yl)amino]-5-{4-[2-(4-pyridin-2-ylpiperazin-1-yl)ethoxy]phenyl}nicotinonitrile]",17 nM
15,"Cc1c(Nc2c(C#N)cncc2-c2ccc(OCCN3CCN(c4ccncc4)CC3)cc2)ccc2[nH]ccc12 [Compound 431, 4-[(4-methyl-1H-indol-5-yl)amino]-5-{4-[2-(4-pyridin-4-ylpiperazin-1-yl)ethoxy]phenyl}nicotinonitrile]",5 nM
16,"Cc1c(Nc2c(C#N)cncc2-c2ccc(OCCNCc3ccccn3)cc2)ccc2[nH]ccc12 [Compound 432, 4-[(4-methyl-1H-indol-5-yl)amino]-5-(4-{2-[(pyridin-2-ylmethyl)amino]ethoxy}phenyl)nicotinonitrile]",9 nM
17,"Cc1c(Nc2c(C#N)cncc2-c2ccc(OCCNCc3cccnc3)cc2)ccc2[nH]ccc12 [Compound 433, 4-[(4-methyl-1H-indol-5-yl)amino]-5-(4-{2-[(pyridin-3-ylmethyl)amino]ethoxy}phenyl)nicotinonitrile]",10 nM
18,"Cc1c(Nc2c(C#N)cncc2-c2ccc(OCCNCc3ccncc3)cc2)ccc2[nH]ccc12 [Compound 434, 4-[(4-methyl-1H-indol-5-yl)amino]-5-(4-{2-[(pyridin-4-ylmethyl)amino]ethoxy}phenyl)nicotinonitrile]",14 nM
19,"Cc1c(Nc2c(C#N)cncc2-c2ccc(OCCN3CCC(c4ccccc4)CC3)cc2)ccc2[nH]ccc12 [Compound 435, 4-[(4-methyl-1H-indol-5-yl)amino]-5-{4-[2-(4-phenylpiperidin-1-yl)ethoxy]phenyl}nicotinonitrile]",49 nM
20,"Cc1c(Nc2c(C#N)cncc2-c2ccc(CN3CCC(N(C)C)CC3)o2)ccc2[nH]ccc12 [Compound 436, 5-(5-{[4-(dimethylamino)piperidin-1-yl]methyl}-2-furyl)-4-[(4-methyl-1H-indol-5-yl)amino]nicotinonitrile]",1 nM
21,"Cc1c(Nc2c(C#N)cncc2-c2ccc(CN3CCN(C(C)C)CC3)o2)ccc2[nH]ccc12 [Compound 437, 5-{5-[(4-isopropylpiperazin-1-yl)methyl]-2-furyl}-4-[(4-methyl-1H-indol-5-yl)amino]nicotinonitrile]",2 nM
22,"Cc1c(Nc2c(C#N)cncc2-c2cc3cc(OCCN4CCN(C)CC4)ccc3o2)ccc2[nH]ccc12 [Compound 438, 4-[(4-methyl-1H-indol-5-yl)amino]-5-{5-[2-(4-methylpiperazin-1-yl)ethoxy]-1-benzofuran-2-yl}nicotinonitrile]",4 nM
23,"COc1ccc(-c2cncc(C#N)c2NCCN2CCN(C)CC2)cc1OC [Compound 439, 5-(3,4-dimethoxyphenyl)-4-{[2-(4-methylpiperazin-1-yl)ethyl]amino}nicotinonitrile]",5850 nM
24,"COc1ccc(-c2cncc(C#N)c2NCCCN2CCN(C)CC2)cc1OC [Compound 440, 5-(3,4-dimethoxyphenyl)-4-{[3-(4-methylpiperazin-1-yl)propyl]amino}nicotinonitrile]",14300 nM

# Other lines, results leading:
row,IC50,SMILES
1,4 nM,"Cc1c(Nc2c(C#N)cncc2-c2ccc(OCCNCCO)cc2)ccc2[nH]ccc12 [Compound 414, 5-(4-{2-[(2-hydroxyethyl)amino]ethoxy}phenyl)-4-[(4-methyl-1H-indol-5-yl)amino]nicotinonitrile]"
2,5 nM,"Cc1c(Nc2c(C#N)cncc2-c2ccc(OCCNCCCO)cc2)ccc2[nH]ccc12 [Compound 415, 5-(4-{2-[(3-hydroxypropyl)amino]ethoxy}phenyl)-4-[(4-methyl-1H-indol-5-yl)amino]nicotinonitrile]"
3,6 nM,"CCOCCNCCOc1ccc(-c2cncc(C#N)c2Nc2ccc3[nH]ccc3c2C)cc1 [Compound 416, 5-(4-{2-[(2-ethoxyethyl)amino]ethoxy}phenyl)-4-[(4-methyl-1H-indol-5-yl)amino]nicotinonitrile]"
4,4 nM,"Cc1c(Nc2c(C#N)cncc2-c2ccc(OCCN3CCCC3)cc2)ccc2[nH]ccc12 [Compound 418, 4-[(4-methyl-1H-indol-5-yl)amino]-5-[4-(2-pyrrolidin-1-ylethoxy)phenyl]nicotinonitrile]"
5,3 nM,"Cc1c(Nc2c(C#N)cncc2-c2ccc(OCCNC3CCN(C)CC3)cc2)ccc2[nH]ccc12 [Compound 420, 4-[(4-methyl-1H-indol-5-yl)amino]-5-(4-{2-[(1-methylpiperidin-4-yl)amino]ethoxy}phenyl)nicotinonitrile]"
6,3 nM,"Cc1c(Nc2c(C#N)cncc2-c2ccc(OCCNCC3CCN(C)CC3)cc2)ccc2[nH]ccc12 [Compound 421, 4-[(4-methyl-1H-indol-5-yl)amino]-5-[4-(2-{[(1-methylpiperidin-4-yl)methyl]amino}ethoxy)phenyl]nicotinonitrile]"
7,8 nM,"Cc1c(Nc2c(C#N)cncc2-c2ccc(OCCN3CCC(CO)CC3)cc2)ccc2[nH]ccc12 [Compound 422, 5-(4-{2-[4-(hydroxymethyl)piperidin-1-yl]ethoxy}phenyl)-4-[(4-methyl-1H-indol-5-yl)amino]nicotinonitrile]"
8,11 nM,"Cc1c(Nc2c(C#N)cncc2-c2ccc(OCCN3CCC(N4CCCC4)CC3)cc2)ccc2[nH]ccc12 [Compound 423, 4-[(4-methyl-1H-indol-5-yl)amino]-5-{4-[2-(4-pyrrolidin-1-ylpiperidin-1-yl)ethoxy]phenyl}nicotinonitrile]"
9,9 nM,"CCN1CCN(CCOc2ccc(-c3cncc(C#N)c3Nc3ccc4[nH]ccc4c3C)cc2)CC1 [Compound 425, 5-{4-[2-(4-ethylpiperazin-1-yl)ethoxy]phenyl}-4-[(4-methyl-1H-indol-5-yl)amino]nicotinonitrile]"
10,13 nM,"Cc1c(Nc2c(C#N)cncc2-c2ccc(OCCN3CCCN(C)CC3)cc2)ccc2[nH]ccc12 [Compound 426, 5-{4-[2-(4-methyl-1,4-diazepan-1-yl)ethoxy]phenyl}-4-[(4-methyl-1H-indol-5-yl)amino]nicotinonitrile]"
11,14 nM,"Cc1c(Nc2c(C#N)cncc2-c2ccc(OCCN3CCN(CCO)CC3)cc2)ccc2[nH]ccc12 [Compound 427, 5-(4-{2-[4-(2-hydroxyethyl)piperazin-1-yl]ethoxy}phenyl)-4-[(4-methyl-1H-indol-5-yl)amino]nicotinonitrile]"
